Measurements taken from patent publication US20120058099A1, “USE OF HYPOXANTHINE FOR PROMOTION OF NEURONAL OUTGROWTH” (CHILDREN'S MEDICAL CENTER CORPORATION, priority 2009, published 2012).
Entries after “also recorded” stand apart in the source; their conditions may differ.

B1: BDNF: brain derived neurotrophic factor (protein, UniProt P23560 19-247, looked up)
Neurotrophic factor BDNF …: APMKEANIRGQGGLAYPGVRTHGTLESVNGPKAGSRGLTSLADTFEHVIEELLDEDQKVRPNEENNKDADLYTSRVMLSSQVPLEPPLLFLLEEYKNYLDAANMSMRVRRHSDPARRGELSVCDSISEWVTAADKKTAVDMSGGTVTVLEKVPVSKGQLKQYFYETKCNPMGYTKEGCRGIDKRHWNSQCRTTQSYVRALTMDSKKRIGWRFIRIDTSCVCTLTIKRGR

Key:
[1] = tested on: embryonic cortical neurons; assay: Embryonic cortical neuron outgrowth visualised by Tau1/MAP2 staining (FIG. 3); format: cell-based, rat; conditions: for axonal outgrowth (Tau1/MAP2 staining): BDNF 2 ng/ml or hypoxanthine 100 μM, FIG. 3
Excerpt: FIG. 3 is a series of photographs of embryonic cortical neurons grown in the presence of the indicated factors (BDNF, hypoxanthine, BDNF+6-thioguanine, BDNF+6-thioguanine+hypoxanthine), which have then been stained with either antibodies to Taul, antibodies to MAP2, or both antibodies to Taul and antibodies to MAP2, in order to visualize neuronal outgrowth.
(§1) These experiments were done on embryonic cortical neurons. The forebrains of […] rat pups were dissected and plated in media containing serum. After 3 hours the medium was exchanged for Medium E (Irwin et al. 2006) (Proc Nati Acad Sci U S A. 2006 Nov 28;103(48):18320-5). The cells were treated the following day with inosine or hypoxanthine, in the presence and absence of the indicated amount of the inhibitor 6-thioguanine (6-TG), and allowed to grow for 3 days. The 6-TG was added 1 hour before the hypoxanthine or inosine. Following the three days of growth, the cells were fixed and stained with Taul antibody and a fluorescent secondary antibody. Axons were then counted. […] FIG. 1 presents the data obtained.
Embryonic cortical neurons were grown in the presence of BDNF (2 ng/ml), hypoxanthine (100 μM), BDNF (2 ng/ml)+6-thioguanine (20 μM) , or BDNF (2 ng/ml)+6-thioguanine (20 μM)+hypoxanthine (100 μM), as described above. The cells were then fixed and stained with either antibodies to Taul, antibodies to map2, or both antibodies to Taul and antibodies to map2, and corresponding fluorescent secondary antibodies, in order to visualize axonal outgrowth.

[2] = tested on: embryonic cortical neurons; assay: Embryonic cortical neuron axon outgrowth, competition with 6-thioguanine (FIG. 1); format: cell-based, rat; conditions: 6-TG 0-80 μM added 1 hour before hypoxanthine or inosine, 3 days growth
Experimental: FIG. 1 contains two separate sets of bar graphs and line graphs representative of data obtained from embryonic cortical neuron competition experiments.
as §1

[3] = biological target: Mst3b (Homo sapiens, UniProt Q9Y6E0); conditions: data not shown
Mst3b, sequence (Q9Y6E0 whole entry): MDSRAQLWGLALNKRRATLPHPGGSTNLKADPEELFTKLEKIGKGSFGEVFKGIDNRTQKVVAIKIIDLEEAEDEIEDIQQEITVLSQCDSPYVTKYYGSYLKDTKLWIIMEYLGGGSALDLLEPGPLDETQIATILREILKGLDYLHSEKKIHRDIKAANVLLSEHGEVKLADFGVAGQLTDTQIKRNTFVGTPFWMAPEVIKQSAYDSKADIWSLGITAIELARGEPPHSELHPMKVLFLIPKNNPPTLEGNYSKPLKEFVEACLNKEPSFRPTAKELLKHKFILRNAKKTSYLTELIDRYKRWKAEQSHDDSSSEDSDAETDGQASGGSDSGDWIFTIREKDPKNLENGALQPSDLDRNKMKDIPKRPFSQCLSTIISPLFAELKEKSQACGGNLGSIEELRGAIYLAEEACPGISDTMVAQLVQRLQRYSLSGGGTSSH

[4] = tested on: embryonic cortical neurons; assay: Embryonic cortical neuron axonal outgrowth with or without BCX-34 (FIG. 2); format: cell-based, rat; conditions: inosine or hypoxanthine 100 μM, BDNF 2 ng/ml
Experimental: as §1
In a similar experiment, embryonic cortical neurons were given brain derived neurotrophic factor (BDNF) (2 ng/ml), inosine, or hypoxanthine (100 μM). […] The cells were then scored for neuron axonal outgrowth. The data collected is represented in FIG. 2.

Row | Molecule | reversal of 6-TG inhibition of BDNF stimulated outgrowth ([1]; BDNF 2 ng/ml + 6-thioguanine 20 μM + hypoxanthine 100 μM) | axonal outgrowth (Tau1/MAP2 staining) [1] | inhibition by 6-thioguanine of inosine- and hypoxanthine-induced axon outgrowth [2] | activation of Mst3b [3] | induction of axonal outgrowth [4] | inhibition of BDNF stimulated outgrowth ([1]; BDNF 2 ng/ml + 6-thioguanine 20 μM) | inhibition by 6-thioguanine of inosine- and hypoxanthine-induced axon outgrowth ([2]; listed as 6-thioguanine)
1 | O=c1[nH]cnc2nc[nH]c12 [hypoxanthine] | inhibition can be overcome; also recorded: inhibition was overcome | cause outgrowth; also recorded: caused axonal outgrowth | similarly inhibited by 6-TG | activates Mst3b | induced axonal outgrowth similarly to BDNF | – | –
2 | OC[C@H]1O[C@@H](n2cnc3c(O)ncnc32)[C@H](O)[C@@H]1O [inosine, reference compound] | – | – | similarly inhibited by 6-TG | – | induced axonal outgrowth similarly to BDNF | – | –
3 | Nc1nc2nc[nH]c2c(=S)[nH]1 [6-TG, 6-thioguanine, reference compound] | – | – | competitively inhibited the actions of both inosine and hypoxanthine | – | – | can be inhibited | competitively inhibits the actions of both inosine and hypoxanthine
4 | B1 | – | cause outgrowth; also recorded: caused axonal outgrowth | – | – | – | – | –
